Data on 33 compounds can be found in patent publication US20080221086A1, “Novel Inhibitors of Glutaminyl Cyclase” (PROBIODRUG AG, priority 2006, published 2008).

A word on the pIC50: it is −log10 of the IC50, conventionally taken in molar units.

This experiment concerns the target hQC (Homo sapiens, UniProt Q16769). Briefly: Fluorometric assay of glutaminyl cyclase (QC) inhibition, H-Gln-βNA or H-Gln-AMC substrate. Type of experiment: biochemical. The essentials:
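Fluorometric coupled assays at 30° C in Tris/HCl pH 8.0 with EDTA and pyroglutamyl aminopeptidase used either 0.2 mM H-Gln-βNA (320/410 nm) or H-Gln-AMC (380/460 nm), started by QC. Screening used 4 mM inhibitor at substrate 1 KM. Ki came from fitting progress curves to competitive inhibition.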

pIC50: −log10 of the molar value. Where two headings read alike, the source gives them in different places.

hQC, sequence (Q16769 29-361): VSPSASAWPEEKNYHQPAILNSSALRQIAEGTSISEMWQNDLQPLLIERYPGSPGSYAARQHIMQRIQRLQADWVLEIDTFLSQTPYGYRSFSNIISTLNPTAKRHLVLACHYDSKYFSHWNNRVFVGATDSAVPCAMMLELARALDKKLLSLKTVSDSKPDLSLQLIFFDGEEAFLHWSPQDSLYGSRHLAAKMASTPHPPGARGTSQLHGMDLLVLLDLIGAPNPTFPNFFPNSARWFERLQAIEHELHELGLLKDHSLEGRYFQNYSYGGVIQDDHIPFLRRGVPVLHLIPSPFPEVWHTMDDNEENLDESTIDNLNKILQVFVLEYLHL

Consider `CCc1ccccc1C1/C(=N/C2CCCc3ccccc32)NC(=S)N1c1ccc2[nH]cnc2c1` (stereo not shown) [Compound 136, 1-(1H-Benzoimidazol-5-yl)-5-(2-ethyl-phenyl)-4-1,2,3,4-tetrahydro-naphthalen-1-yliminoimidazolidine-2-thione], for which the negative logarithm of the IC50 (pIC50) (read-out: IC50) was 5.17.
For the compound `O=C1N/C(=N\Cc2ccccc2)C(c2ccccc2F)N1CCCn1ccnc1` (stereo not shown) [Compound 98, 4-Benzylimino-5-(2-fluoro-phenyl)-1-(3-imidazol-1-yl-propyl)-imidazolidin-2-one], for the setting “read-out: IC50”, the pIC50 was 5.24.
For the compound `O=C(C/N=C1/NC(=O)N(c2ccc3[nH]cnc3c2)C1c1cccc(Br)c1)N1CCSCC1` (stereo not shown) [Compound 342, 1-(1H-Benzoimidazol-5-yl)-5-(3-bromo-phenyl)-4-2-oxo-2-thiomorpholin-4-yl-ethylimino-imidazolidin-2-one], the pIC50 (read-out: IC50) is 6.40.
The same measure, in the same setting: then `O=C1N/C(=N/Cn2nnc3ccccc32)C(c2cc3c(cc2Br)OCO3)N1c1ccc2nc[nH]c2c1` (stereo not shown) [Compound 204, 1-(3H-Benzoimidazol-5-yl)-4-benzotriazol-1-ylmethylimino-5-(6-bromo-benzo1,3dioxol-5-yl)-imidazolidin-2-one], with 6.40.
With `COCC/N=C1/NC(=O)N(c2ccc3[nH]cnc3c2)C1c1ccc(C)cc1` (stereo not shown) [Compound 308, 1-(1H-Benzoimidazol-5-yl)-4-2-methoxy-ethylimino-5-p-tolyl-imidazolidin-2-one], the negative-log IC50 (pIC50) (read-out: IC50) was 5.89.
In the case of `O=C1N/C(=N/CCc2c[nH]c3ccccc23)C(c2cccc(F)c2)N1CCCn1ccnc1` (stereo not shown) [Compound 62, 5-(3-Fluoro-phenyl)-1-(3-imidazol-1-yl-propyl)-4-2-(1H-indol-3-yl)-ethylimino-imidazolidin-2-one], the pIC50 (read-out: IC50) was 5.51.
On the same count and under the same terms, the result for `C/N=C1/NC(=O)N(c2ccc3[nH]cnc3c2)C1c1ccc2[nH]ccc2c1` (stereo not shown) [Compound 116, 1-(1H-Benzoimidazol-5-yl)-5-(1H-indol-5-yl)-4-methylimino-imidazolidin-2-one] reads 8.40; that for `O=C1N/C(=N\CCc2cccs2)C(c2ccccc2F)N1CCCn1ccnc1` (stereo not shown) [Compound 44, 5-(2-Fluoro-phenyl)-1-(3-imidazol-1-yl-propyl)-4-(2-thiophen-2-yl-ethylimino)-imidazolidin-2-one], 5.24.
As for `O=C1N/C(=N/Cn2nnc3ccccc32)C(c2cc(F)cc(F)c2)N1c1ccc2[nH]cnc2c1` (stereo not shown) [Compound 148, 1-(1H-Benzoimidazol-5-yl)-4-benzotriazol-1-ylmethylimino-5-(3,5-difluoro-phenyl)-imidazolidin-2-one], the negative-log IC50 (pIC50) (read-out: IC50) is 5.51.
Turning to `O=C1NC(=NC2CCCc3ccccc32)C(c2ccccc2Cl)N1c1ccc2[nH]cnc2c1` (stereo not shown) [Compound 190, 1-(1H-Benzoimidazol-5-yl)-5-(2-chloro-phenyl)-4-1,2,3,4-tetrahydro-naphthalen-1-ylimino-imidazolidin-2-one], the negative logarithm of the IC50 (pIC50) (read-out: IC50) is 6.40.
In the case of `Cc1ccc(C2/C(=N/C3CCCCCC3)NC(=S)N2c2ccc3nc[nH]c3c2)c(C)c1` (stereo not shown) [Compound 344, 1-(3H-Benzoimidazol-5-yl)-4-cycloheptylimino-5-(2,4-dimethyl-phenyl)-imidazolidine-2-thione], where the note is “read-out: IC50”, the negative logarithm of the IC50 (pIC50) is 5.31.
For `COC(=O)C(C)/N=C1/NC(=S)N(c2ccc3[nH]cnc3c2)C1c1c(F)ccc(Cl)c1F` (stereo not shown) [Compound 268, Methyl 2-(1-(1H-benzo[d]imidazol-5-yl)-5-(3-chloro-2,6-difluorophenyl)-2-thioxoimidazolidin-4-ylideneamino)propanoate], under “read-out: IC50”, the pIC50 was 5.03.
Still for that read-out and setting: then `O=C(C/N=C1\C(c2cccc(Br)c2)NC(=S)N1c1ccc2[nH]cnc2c1)N1CCSCC1` (stereo not shown) [Compound 152, 2-(3-(1H-benzo[d]imidazol-5-yl)-5-(3-bromophenyl)-2-thioxoimidazolidin-4-ylideneamino)-1-thiomorpholinoetha-none], with 5.66; and `S=C1NC(=NC2CCc3ccccc32)C(c2ccnc3ccccc23)N1c1ccc2[nH]cnc2c1` (stereo not shown) [Compound 191, 1-(1H-Benzoimidazol-5-yl)-4-indan-1-ylimino-5-quinolin-4-yl-imidazolidine-2-thione], with 5.03; and `O=C1CCCN1CCC/N=C1/NC(=O)N(c2ccc3[nH]cnc3c2)C1c1cc(F)cc(F)c1` (stereo not shown) [Compound 335, 1-(1H-Benzoimidazol-5-yl)-5-(3,5-difluoro-phenyl)-4-3-(2-oxo-pyrrolidin-1-yl)-propylimino-imidazolidin-2-one], with 5.89.
As for `O=C1N/C(=N/CCCc2ccccc2)C(c2cc(Br)cc(Br)c2)N1c1ccc2[nH]cnc2c1` (stereo not shown) [Compound 303, 1-(1H-Benzoimidazol-5-yl)-5-(3,5-dibromo-phenyl)-4-3-phenyl-propylimino-imidazolidin-2-one], for the setting “read-out: IC50”, the negative-log IC50 (pIC50) is 8.40.
On the same count and under the same terms, then `O=C1CCCN1CCC/N=C1/NC(=O)N(c2ccc3[nH]cnc3c2)C1c1ccc2nsnc2c1` (stereo not shown) [Compound 155, 1-(1H-Benzoimidazol-5-yl)-5-benzo[c][1,2,5]thiadiazol-5-yl-4-3-(2-oxo-pyrrolidin-1-yl)-propylimino-imidazolidin-2-one], with 8.40; and `CCCCC1/C(=N\c2ccc3c(c2)OCCO3)NC(=O)N1CCCn1ccnc1` (stereo not shown) [Compound 35, 5-Butyl-4-2,3-dihydro-benzo1,4dioxin-6-ylimino-1-(3-imidazol-1-yl-propyl)-imidazolidin-2-one], with 5.24.
Still for that read-out and setting: then `Cc1nc[nH]c1C1/C(=N/C2CCCCC2O)NC(=O)N1c1ccc2[nH]cnc2c1` (stereo not shown) [Compound 142, 3-(1H-Benzoimidazol-5-yl)-5-2-hydroxy-cyclohexylimino-5′-methyl-1,3,4,5-tetrahydro-3′H-4,4′biimidazolyl-2-one], with 5.07; and `CC1=CC(C)C(C2/C(=N/c3ccccc3Br)NC(=S)N2c2ccc3[nH]cnc3c2)CC1` (stereo not shown) [Compound 300, 1-(1H-Benzoimidazol-5-yl)-4-2-bromo-phenylimino-5-(2,4-dimethyl-cyclohex-3-enyl)-imidazolidine-2-thione], with 5.03.
For `O=C1N/C(=N\C(c2ccccc2)c2ccccc2)C(C2CCC=CO2)N1CCCn1ccnc1` (stereo not shown) [Compound 82, 4-Benzhydrylimino-5-(3,4-dihydro-2H-pyran-2-yl)-1-(3-imidazol-1-yl-propyl)-imidazolidin-2-one], the pIC50 (read-out: IC50) was 5.03.
The same measure, in the same setting: then `CN(C)c1ccc(C2/C(=N/C3CCc4ccccc43)NC(=O)N2c2ccc3[nH]cnc3c2)cc1` (stereo not shown) [Compound 242, 1-(1H-Benzoimidazol-5-yl)-5-(4-dimethylamino-phenyl)-4-indan-1-ylimino-imidazolidin-2-one], with 8.40; and `S=C1N/C(=N/Cc2ccccc2)C(c2ccc(Cl)cc2)N1c1ccc2[nH]cnc2c1` (stereo not shown) [Compound 251, 1-(1H-Benzoimidazol-5-yl)-4-benzylimino-5-(4-chloro-phenyl)-imidazolidine-2-thione], with 5.40.
The same measure, in the same setting: the result for `O=C1N/C(=N/Cc2cccnc2)C(c2cccc(F)c2)N1CCCn1ccnc1` (stereo not shown) [Compound 91, 5-(3-Fluoro-phenyl)-1-(3-imidazol-1-yl-propyl)-4-pyridin-3-ylmethylimino-imidazolidin-2-one] reads 5.07.
As for `O=C1N/C(=N/CCc2c[nH]c3ccccc23)C(c2ccco2)N1CCCn1ccnc1` (stereo not shown) [Compound 58, 5-Furan-2-yl-1-(3-imidazol-1-yl-propyl)-4-2-(1H-indol-3-yl)-ethylimino-imidazolidin-2-one], where the note is “read-out: IC50”, the pIC50 was 5.17.
On to `O=C(C/N=C1\NC(=O)N(c2ccc3[nH]cnc3c2)C1c1c(F)ccc(Cl)c1F)N1CCCC(O)C1` (stereo not shown) [Compound 154, 1-(1H-Benzoimidazol-5-yl)-5-(3-chloro-2,6-difluoro-phenyl)-4-2-(3-hydroxy-piperidin-1-yl)-2-oxo-ethylimino-imidazolidin-2-one], for which the pIC50 (read-out: IC50) is 6.40.
As for `O=C(C/N=C1/NC(=O)N(CCCn2ccnc2)C1c1ccc(F)cc1)N1CCc2ccccc2C1` (stereo not shown) [Compound 78, 4-2-(3,4-Dihydro-1H-isoquinolin-2-yl)-2-oxo-ethylimino-5-(4-fluoro-phenyl)-1-(3-imidazol-1-yl-propyl)-imidazolidin-2-one], the pIC50 (read-out: IC50) is 5.51.
In the case of `CC(CC1/C(=N/C2CCCCCC2)NC(=O)N1c1ccc2nc[nH]c2c1)CC(C)(C)C` (stereo not shown) [Compound 130, 1-(3H-Benzoimidazol-5-yl)-4-cycloheptylimino-5-(2,4,4-trimethyl-pentyl)-imidazolidin-2-one], the pIC50 (read-out: IC50) was 5.12.
As to `O=C1N/C(=N/Cc2ccccc2)C(c2ccc(Cl)cc2)N1c1ccc2[nH]cnc2c1` (stereo not shown) [Compound 162, 1-(1H-Benzoimidazol-5-yl)-4-benzylimino-5-(4-chloro-phenyl)-imidazolidin-2-one], the negative logarithm of the IC50 (pIC50) runs as follows: (compound from preparative synthesis, purified by chromatography, fluorescent assay, read-out: IC50 hQC) 7.71; (read-out: IC50) 8.40.
For the compound `S=C1N/C(=N\C2CCCc3ccccc32)C(c2ccccc2Cl)N1c1ccc2[nH]cnc2c1` (stereo not shown) [Compound 278, 1-(1H-Benzoimidazol-5-yl)-5-(2-chloro-phenyl)-4-1,2,3,4-tetrahydro-napthalen-1-ylimino-imidazolidine-2-thione], under “read-out: IC50”, the pIC50 was 5.17.
As for `S=C1N/C(=N/CCCc2ccccc2)C(c2cc3ccccc3s2)N1c1ccc2[nH]cnc2c1` (stereo not shown) [Compound 258, 5-Benzobthiophen-2-yl-1-(1H-benzoimidazol-5-yl)-4-3-phenyl-propylimino-imidazolidine-2-thione], the negative-log IC50 (pIC50) (read-out: IC50) was 5.51.
In the case of `O=C(C/N=C1/NC(=O)N(CCCn2ccnc2)C1c1ccc(O)cc1)N1CCc2ccccc2C1` (stereo not shown) [Compound 79, 4-2-(3,4-Dihydro-1H-isoquinolin-2-yl)-2-oxo-ethylimino-5-(4-hydroxy-phenyl)-1-(3-imidazol-1-yl-propyl)-imidazolidin-2-one], under “read-out: IC50”, the pIC50 is 5.51.
Take `O=C1NC(=NCC2CCCO2)C(c2cccc(F)c2F)N1CCCn1ccnc1` (stereo not shown) [Compound 114, 5-(2,3-Difluoro-phenyl)-1-(3-imidazol-1-yl-propyl)-4-tetrahydro-furan-2-ylmethylimino-imidazolidin-2-one]: the pIC50 (read-out: IC50) was 5.07.
